Measurements as given in US20250320496A1, “MODULATION OF ABCB11 GENE TRANSCRIPTION USING ANTISENSE OLIGONUCLEOTIDES TARGETING REGULATORY RNAS” (CAMP4 Therapeutics Corporation, priority 2022, published 2025).
Strand notation (5' to 3'): a small letter for the sugar, then the base; units joined by * are phosphorothioate-linked, units joined directly phosphodiester-linked; [ ] holds rarer units or linkages, { } end groups; capitals alone tell only the bases. e = 2'-O-(2-methoxyethyl) (MOE); l = locked nucleic acid (LNA); [5mC] = 5-methylcytosine; d = 2'-deoxy (DNA)

System: human ABCB11 mRNA
Assay: ASO treatment of primary human hepatocytes (PHH), ABCB11 mRNA by RT-qPCR normalized to B2M
Type: cell-based
Details: for ABCB11 FC mRNA (5 μM ASO vs. untreated) / ABCB11 mRNA FC (5 μM ASO vs. UNT): primary human hepatocytes; for ABCB11 FC mRNA (5 μM ASO vs. untreated): 5 μM ASO with PO-modifications, normalized to untreated hepatocytes; for ABCB11 mRNA FC (5 μM ASO vs. UNT): normalized to untreated PHHs (UNT)
Procedure, shortened: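 ABCB11 mRNA was quantified by Taqman RT-qPCR relative to B2M and expressed as fold over untreated cells. Cells were cryopreserved primary human hepatocytes given ASO in Matrigel-supplemented medium 4 h after plating, at 1.25, 2.5, 5 or 10 μM (5 μM for screening), and harvested after 72 hrs.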

CO-11198 (antisense eT*eG*eT*eT*eTeTeG*e[5mC]*eT*eT*eG*eG*eT*e[5mC]eAeA*eG*eA*eG*eG)
ABCB11 FC mRNA (5 μM ASO vs. untreated): 0.97 fold change

CO-7056 (antisense eT*eG*e[5mC]*eT*e[5mC]*eA*e[5mC]*e[5mC]*e[5mC]*e[5mC]*e[5mC]*e[5mC]*eT*e[5mC]*eA*e[5mC]*e[5mC]*eT*eT*eG)
ABCB11 mRNA FC (5 μM ASO vs. UNT): 1.491 fold change

CO-7090 (eA*e[5mC]*e[5mC]*e[5mC]*l[5mC]*d[5mC]*d[5mC]*dT*l[5mC]*dA*d[5mC]*d[5mC]*lT*dT*dG*eG*lT*eT*e[5mC]*e[5mC]; antisense)
ABCB11 mRNA FC (5 μM ASO vs. UNT): 1.203 fold change

CO-6997 (antisense eG*eT*eG*eA*lG*dG*d[5mC]*dA*lT*d[5mC]*dA*dG*lG*dT*dA*eA*lG*eT*eT*e[5mC])
ABCB11 mRNA FC (5 μM ASO vs. UNT): 1.058 fold change

CO-11226 (antisense eG*eT*lGeG*eA*lG*e[5mC]*eAlA*eA*e[5mC]*lT*eAeG*lG*e[5mC]*eA*l[5mC]eT*eG)
ABCB11 FC mRNA (5 μM ASO vs. untreated): 2.31 fold change

CO-7161 (antisense eG*eA*eT*eG*eT*eG*eG*eA*eG*eG*eT*eG*eG*eA*eG*e[5mC]*eA*eA*eA*e[5mC])
ABCB11 mRNA FC (5 μM ASO vs. UNT): 1.324 fold change

CO-7014 (antisense eA*eG*eT*eG*eA*eG*eG*e[5mC]*eA*eT*e[5mC]*eA*eG*eG*eT*eA*eA*eG*eT*eT*e[5mC]*e[5mC])
ABCB11 mRNA FC (5 μM ASO vs. UNT): 1.293 fold change

CO-11223 (antisense eG*eT*lG*eGeAlGe[5mC]*eA*lA*eA*e[5mC]*lT*eA*eGlGe[5mC]eA*l[5mC]*eT*eG)
ABCB11 FC mRNA (5 μM ASO vs. untreated): 1.80 fold change

CO-3989 (antisense eA*eA*eG*eA*eT*eG*e[5mC]*eT*eA*e[5mC]*eA*eA*eT*eT*eG*e[5mC]*e[5mC]*eA*eT*eA)
ABCB11 mRNA FC (5 μM ASO vs. UNT): 1.19 fold change

CO-4492 (antisense eG*eA*eT*eT*eT*eA*eA*eA*eG*eG*eA*e[5mC]*eT*eG*e[5mC]*eA*eT*eG*eG*e[5mC])
ABCB11 mRNA FC (5 μM ASO vs. UNT): 1.192 fold change

CO-4496 (antisense eG*eT*eA*e[5mC]*eT*eA*eG*eA*e[5mC]*eT*e[5mC]*eT*eG*e[5mC]*e[5mC]*eT*eG*eT*eG*eT)
ABCB11 mRNA FC (5 μM ASO vs. UNT): 0.984 fold change

CO-4051 (antisense eG*eA*e[5mC]*eT*eT*eT*eT*eG*eA*eG*e[5mC]*eA*eA*eG*eG*e[5mC]*eT*eG*eT*eT)
ABCB11 mRNA FC (5 μM ASO vs. UNT): 0.908 fold change

CO-6990 (antisense eT*eG*lG*eA*eT*lG*eT*eA*lG*eA*eT*lG*eA*eA*lT*eG*eG*l[5mC]*eA*eA)
ABCB11 mRNA FC (5 μM ASO vs. UNT): 1.16 fold change

CO-7179: derivative ASO with additional chemical modifications based on parent ASO CO-4529 (antisense eG*eT*lG*eG*lA*eG*l[5mC]*eA*lA*eA*l[5mC]*eT*lA*eG*lG*e[5mC]*lA*e[5mC]*eT*eG)
ABCB11 mRNA FC (5 μM ASO vs. UNT): 2.344 fold change

CO-7150: derivative ASO with additional chemical modifications based on parent ASO CO-4517 (antisense e[5mC]*e[5mC]*eT*eT*eA*dG*dG*dA*eG*dG*dA*dT*dT*eA*dT*dT*dT*eA*eA*e[5mC]*e[5mC]*eT)
ABCB11 mRNA FC (5 μM ASO vs. UNT): 1.505 fold change

CO-11239 (antisense eG*eT*eG*eGlA*eG*e[5mC]*eAeA*lA*e[5mC]*eTeA*eG*lG*e[5mC]eA*e[5mC]*eT*eG)
ABCB11 FC mRNA (5 μM ASO vs. untreated): 1.53 fold change

CO-7044 (antisense eT*eT*eT*eT*eG*e[5mC]*eT*eT*eG*eG*eT*e[5mC]*eA*eA*eG*eA*eG*eG*eA*eA)
ABCB11 mRNA FC (5 μM ASO vs. UNT): 0.943 fold change

CO-6992 (antisense eT*eG*eG*lA*eT*eGeT*lA*eG*eA*eT*lG*eA*eA*eT*lG*eG*e[5mC]*eA*eA)
ABCB11 mRNA FC (5 μM ASO vs. UNT): 0.992 fold change

CO-4524 (antisense e[5mC]*eA*eG*eA*eG*eA*eA*eA*e[5mC]*e[5mC]*eT*eA*eA*eA*eA*eT*eT*eG*eA*eG)
ABCB11 mRNA FC (5 μM ASO vs. UNT): 1.243 fold change

CO-4486 (antisense eG*eG*eA*e[5mC]*eT*eG*e[5mC]*eG*eT*eG*eA*e[5mC]*eT*e[5mC]*eA*eG*eG*eT*eT*eA)
ABCB11 mRNA FC (5 μM ASO vs. UNT): 1.151 fold change

CO-11240 (antisense eG*eT*eG*eG*lAeG*e[5mC]*eA*eAlA*e[5mC]*eT*eAeG*lG*e[5mC]*eAe[5mC]*eT*eG)
ABCB11 FC mRNA (5 μM ASO vs. untreated): 1.31 fold change

CO-11227 (antisense eG*eT*lG*eGeA*lG*e[5mC]*eAlA*eA*e[5mC]*lTeA*eG*lG*e[5mC]eA*l[5mC]*eT*eG)
ABCB11 FC mRNA (5 μM ASO vs. untreated): 2.11 fold change

CO-4015 (antisense eG*eT*eT*eT*eG*e[5mC]*eT*e[5mC]*eT*eG*eA*eT*eA*eA*eT*e[5mC]*eA*e[5mC]*eA*eG)
ABCB11 mRNA FC (5 μM ASO vs. UNT): 1.043 fold change

CO-7067 (eT*e[5mC]*eT*eG*lG*eA*eA*eA*eA*lT*eA*eA*eT*eG*l[5mC]*e[5mC]*eT*eT*eT*e[5mC]; antisense)
ABCB11 mRNA FC (5 μM ASO vs. UNT): 1.081 fold change

CO-7035 (antisense e[5mC]*eA*eT*eT*eT*dA*dG*dA*dG*dA*d[5mC]*dA*dA*dA*dG*eA*eA*eT*e[5mC]*eG)
ABCB11 mRNA FC (5 μM ASO vs. UNT): 1.047 fold change

CO-7209 (eT*eT*eT*eG*eG*d[5mC]*dG*eT*dT*dA*eT*dT*dA*eA*dT*dT*e[5mC]*dT*dA*e[5mC]*eA*eG*eA*eG; antisense)
ABCB11 mRNA FC (5 μM ASO vs. UNT): 1.262 fold change

CO-7201 (eA*eG*eG*eT*eG*dG*dA*eG*d[5mC]*dA*eA*dA*d[5mC]*eT*dA*dG*eG*d[5mC]*dA*e[5mC]*eT*eG*eA*eG; antisense)
ABCB11 mRNA FC (5 μM ASO vs. UNT): 1.253 fold change

CO-6973 (antisense eA*eA*eA*eA*eA*eT*eG*eGeGeT*eGeT*eG*eG*eA*eT*eG*eT*eA*eG)
ABCB11 mRNA FC (5 μM ASO vs. UNT): 1.325 fold change

CO-11204 (antisense eT*eG*eT*eT*eTeT*eG*e[5mC]*eTeT*eG*eG*eTe[5mC]*eA*eA*eGeA*eG*eG)
ABCB11 FC mRNA (5 μM ASO vs. untreated): 1.15 fold change

CO-6988 (antisense eT*eG*eG*lA*eT*lG*eT*lA*eG*lA*eT*lG*eA*lA*eT*lG*eG*l[5mC]*eA*eA)
ABCB11 mRNA FC (5 μM ASO vs. UNT): 1.093 fold change

CO-4055 (antisense eT*eT*eG*eA*eA*e[5mC]*e[5mC]*eT*eT*eT*eA*eG*eA*eA*eA*eA*eT*e[5mC]*eG*eT)
ABCB11 mRNA FC (5 μM ASO vs. UNT): 1.287 fold change

CO-6999 (antisense eG*eT*lG*eA*lG*eG*l[5mC]*eA*lT*e[5mC]*lA*eG*lGeT*lA*eA*lG*eT*eT*e[5mC])
ABCB11 mRNA FC (5 μM ASO vs. UNT): 1.24 fold change

CO-7019 (antisense eA*eA*eG*eT*eG*dA*dG*eG*d[5mC]*dA*eT*d[5mC]*dA*eG*dG*dT*eA*dA*dG*eT*eT*e[5mC]*e[5mC]*eT)
ABCB11 mRNA FC (5 μM ASO vs. UNT): 1.284 fold change

CO-7004 (antisense eG*eT*eG*eA*lG*eG*e[5mC]*eA*eT*l[5mC]*eA*eG*eG*eT*lA*eA*eG*eT*eT*e[5mC])
ABCB11 mRNA FC (5 μM ASO vs. UNT): 1.285 fold change

CO-4053 (antisense eG*eA*eG*e[5mC]*eT*eT*e[5mC]*eA*eT*e[5mC]*eT*eG*eG*eT*eG*eT*eG*eT*e[5mC]*e[5mC])
ABCB11 mRNA FC (5 μM ASO vs. UNT): 1.218 fold change

CO-4030 (antisense eT*e[5mC]*eA*e[5mC]*eA*eG*eGeT*eA*eA*eG*eT*eA*eA*e[5mC]*eT*eT*eA*eT*eA)
ABCB11 mRNA FC (5 μM ASO vs. UNT): 1.106 fold change

CO-7158 (antisense eA*eG*eG*eT*eG*eG*eA*eG*e[5mC]*eA*eA*eA*e[5mC]*eT*eA*eG*eG*e[5mC]*eA*e[5mC])
ABCB11 mRNA FC (5 μM ASO vs. UNT): 1.229 fold change

CO-7011 (antisense eT*eG*eT*eG*eG*dA*dT*eG*dT*dA*eG*dA*dT*eG*dA*dA*eT*dG*dG*e[5mC]*eA*eA*eG*eG)
ABCB11 mRNA FC (5 μM ASO vs. UNT): 1.284 fold change

CO-12750 (antisense eG*eT*eG*eAeG*eG*e[5mC]*eAeT*e[5mC]*eA*eGeG*eT*eA*eAeG*eT*eT*e[5mC])
ABCB11 FC mRNA (5 μM ASO vs. untreated): 1.39 fold change

CO-4045 (antisense eA*e[5mC]*eT*eT*eT*eT*e[5mC]*eA*e[5mC]*eA*eA*e[5mC]*eT*eA*e[5mC]*eA*eG*eG*e[5mC]*e[5mC])
ABCB11 mRNA FC (5 μM ASO vs. UNT): 0.815 fold change

CO-11235 (antisense eG*eT*eG*eGlAeGe[5mC]*eA*eA*lA*e[5mC]*eT*eA*eGlGe[5mC]eA*e[5mC]*eT*eG)
ABCB11 FC mRNA (5 μM ASO vs. untreated): 1.47 fold change

CO-4047 (antisense eG*e[5mC]*eA*eA*eT*e[5mC]*eT*eT*eT*eT*eA*eT*eA*eT*eT*eG*eA*eG*eG*eG)
ABCB11 mRNA FC (5 μM ASO vs. UNT): 0.676 fold change

CO-7100 (eA*eT*e[5mC]*eT*eG*dG*dA*dA*eA*dA*dT*dA*dA*eT*dG*d[5mC]*d[5mC]*eT*eT*eT*e[5mC]*eT; antisense)
ABCB11 mRNA FC (5 μM ASO vs. UNT): 1.406 fold change

CO-4039 (antisense eG*eG*eT*eT*eA*eT*eT*eG*e[5mC]*eT*e[5mC]*eT*eG*eA*eG*eT*eA*eT*eG*eT)
ABCB11 mRNA FC (5 μM ASO vs. UNT): 1.022 fold change

CO-7068 (e[5mC]*eA*eT*eT*eT*lA*dG*dA*lG*dA*d[5mC]*lA*dA*dA*lG*eA*eA*eT*e[5mC]*eG; antisense)
ABCB11 mRNA FC (5 μM ASO vs. UNT): 1.077 fold change

CO-6976 (antisense eT*e[5mC]*e[5mC]*eT*eG*eA*eA*eG*eT*eG*eG*eA*eG*eG*eT*eG*eG*eT*eG*eG)
ABCB11 mRNA FC (5 μM ASO vs. UNT): 1.373 fold change

CO-3984: ASO targeting the paRNA regRNA RR63 (antisense e[5mC]*eA*eT*eT*eT*eA*eG*eA*eG*eA*e[5mC]*eA*eA*eA*eG*eA*eA*eT*e[5mC]*eG)
upregulation of ABCB11 mRNA (PHHs, Day 3, normalized to untreated PHHs): approximately 1.5 fold | ABCB11 mRNA FC (5 μM ASO vs. UNT): 1.111 fold change

CO-4038 (antisense e[5mC]*eT*e[5mC]*eG*eT*eA*eT*eG*eT*e[5mC]*eA*e[5mC]*eT*eG*eA*eA*e[5mC]*eT*eG*eT)
ABCB11 mRNA FC (5 μM ASO vs. UNT): 1.701 fold change

CO-7057 (antisense eA*e[5mC]*eT*eG*e[5mC]*eT*e[5mC]*eA*e[5mC]*e[5mC]*e[5mC]*e[5mC]*e[5mC]*e[5mC]*eT*e[5mC]*eA*e[5mC]*e[5mC]*eT)
ABCB11 mRNA FC (5 μM ASO vs. UNT): 1.145 fold change
